Patent US20080226596A1, “Therapeutic compositions and methods useful in treating hepatitis” (priority 2006, published 2008)

What was measured:
WM9 cells = test: WM9 melanoma cell growth, MTT assay; type: cell-based, human
Protocol: For cell proliferation assays, cells were grown in 10% FCS culture medium containing various amounts of IFNs and/or sodium stibogluconate in 96 well plates and cultured at 37° C. for 3 or 6 days as indicated. The numbers of viable cells in proliferation assays were determined by MTT assays as described in Phatak et al., J. Immunol. 167, 3391 (2001).
Dose response curves were generated for each drug alone, and also the combinations. Median effect plots were generated for IFNs alone, sodium stibogluconate alone, and the combination. The combination index (CI) was determined and plotted vs. fraction affected (FA). Data were analyzed in both modes, mutually exclusive and mutually nonexclusive. The interaction between two mutually nonexclusive drugs is described by the Equation CI=D1/Dx1+D2/Dx2+D1D2/Dx1Dx2, where Dx1 and Dx2 are the doses of drug 1 and drug 2 that are required to inhibit growth x %. […] When CI<1, drugs are synergistic, when CI=1, drugs are additive, and when CI>1, drugs are antagonistic.
Renca (Murphy, G. P., and W. J. Hrushesky. 1973. A murine renal cell carcinoma. J Natl Cancer Inst 50:1013), Jurkat (Gillis, S., and J. Watson. 1980. Biochemical and biological characterization of lymphocyte regulatory molecules. V. Identification of an interleukin 2-producing human leukemia T cell line. J Exp Med 152:1709) and WM9 (Forsberg, K., I. Valyi-Nagy, C. H. Heldin, M. Herlyn, and B. Westermark. 1993. Platelet-derived growth factor (PDGF) in oncogenesis: development of a vascular connective tissue stroma in xenotransplanted human melanoma producing PDGF-BB. Proc Natl Acad Sci USA 90:393) cell lines were obtained from a colleague at the Cleveland Clinic Foundation (CCF) and cultured in RPMI 1640 medium supplemented with 10% fetal calf serum (FCS). […] SSG has been described previously (Yi, T., M. K. Pathak, D. J. Lindner, M. E. Ketterer, C. Farver, and E. C. Borden. 2002. Anticancer activity of sodium stibogluconate in synergy with IFNs. J Immunol 169:5978).
NIH3T3 (Yi, et al., Blood 85, 87 (1995)), WM9 (Forsberg, et al., Proc. Nat. Acad Sci. USA 90, 393 (1993)), DU145 (Mickey, et al., Cancer Res. 37, 4049 (1977)), LoVo (Drewinko, et al., Cancer Res. 36, 467 (1976)), HEY (Buick, et al., Cancer Res. 45, 3668 (1985)), U251 (Yoshida, et al., Cancer 50, 410 (1982)), A549 (Giard, et al., J. Natl. Cancer Inst. 51, 1417 (1973)) and SK-N-SH (Helson, et al., Cancer Res. 35, 2594 (1975)) cell lines have been described and were cultured in RPMI 1640 supplemented with 10% fetal calf serum (FCS). For measurement of sodium stibogluconate effects on cell growth in vitro, cells were cultured in the absence (−) or presence (+) of various amounts of sodium stibogluconate for 6 days with viable cells quantified by MTT assays (Mosmann, J. Immunol. Methods 65, 55 (1983)). Percentages of growth inhibition by sodium stibogluconate were calculated (.+−.x

PRL-1 = target: T1, PRL-1 (Homo sapiens, UniProt Q93096); test: In vitro PTPase assay, recombinant PRL-1; type: biochemical; conditions: 0.1-100 μg/ml
T1 construct: GST (N); made in house; host or cells: DHSa (DH5a) bacteria
Text: (§1) Sodium stibogluconate, suramin, sodium orthovanadate and GST fusion protein of SHP-1 have been described previously (Pathak et al., J. Imumol. 167, 3391 (2001)). Meglumine antimonate was obtained from Aventis. cDNAs of human PRL-1, PRL-2 and PRL-3 coding region were derived by RT-PCR from H9 cells (Safai, et al., Lancet 1, 1438 (1984)) and inserted in frame into the pGEX vector. cDNA of PRL-1R86 was generated by recombinant DNA technique using PRL-1 cDNA as template following established procedures (Jiao, et al., Mol. Cell. Biol. 16, 6985 (1996)). […]
(§2) In vitro PTPase assays were used to determine the effects of compounds on recombinant PTPases, following established procedures using a synthetic phosphotyrosine peptide or DiFMUP as the substrate (Pathak et al., J. Imumol. 167, 3391 (2001)). […] PTPase activity of individual reactions was measured by adding 100 µL of malachite green solution (UBI) and then quantifying the amounts of free phosphate cleaved by the PTPase from the peptide substrate by spectrometry (OD660 nm). […] Relative PTPase activities were calculated based on the formula: (PTPase activity in the presence of an inhibitory compound/PTPase activity in the absence of the compound)× 100%. […]

PRL-2 = target: T2, PRL-2 (Homo sapiens, UniProt Q12974); test: In vitro PTPase assay, recombinant PRL-2; type: biochemical
T2 construct: GST (N); made in house; host or cells: DHSa (DH5a) bacteria
Text: as §1, §2

T2 sequence (Q12974 whole entry): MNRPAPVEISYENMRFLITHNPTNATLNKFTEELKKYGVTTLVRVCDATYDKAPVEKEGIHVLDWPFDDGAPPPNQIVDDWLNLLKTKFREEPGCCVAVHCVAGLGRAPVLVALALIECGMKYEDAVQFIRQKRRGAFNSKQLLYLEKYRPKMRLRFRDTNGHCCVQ
T1 sequence (Q93096 whole entry): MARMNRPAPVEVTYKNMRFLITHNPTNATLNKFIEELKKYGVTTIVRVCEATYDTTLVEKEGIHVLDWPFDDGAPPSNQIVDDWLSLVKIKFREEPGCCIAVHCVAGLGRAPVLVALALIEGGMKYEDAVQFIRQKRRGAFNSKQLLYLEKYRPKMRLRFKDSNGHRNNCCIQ

Row | SMILES | effect on IFN-alpha activity against WM9 (WM9 cells; ketoconazole 40 μg/ml) | activity against WM9 cells (WM9 cells; ketoconazole 0.625-20 μg/ml, single agent or with IFN-alpha) | PRL-1 PTPase activity retained (PRL-1) | effect against PRL-2 (PRL-2) | IFN-alpha-induced growth inhibition of WM9 with pentamidine (WM9 cells; most obviously at 0.625-1.25 μg/ml) | WM9 cell growth (WM9 cells; SSG, 6 days, comparable conditions to Renca) | killing of WM9 cells (WM9 cells; single agent, 50 and 100 μg/ml, day 6)
1 | CC(=O)N1CCN(c2ccc(OCC3COC(Cn4ccnc4)(c4ccc(Cl)cc4Cl)O3)cc2)CC1 (stereo not drawn) [ketoconazole] | minor augmenting effect on IFN-alpha activity | no apparent activity | 60-70% | not effective | – | – | –
2 | N=C(N)c1ccc(OCCCCCOc2ccc(C(=N)N)cc2)cc1 [pentamidine] | – | – | 70-80% | not effective | augmented IFN-alpha-induced growth inhibition | – | –
3 | O.O.O.O.O.O.O.O.O.O=C([O-])[C@@H]1[O][Sb]2([O-])([O][Sb]34([OH])[O][C@H]([C@H](O)CO)[C@H]([O]3)[C@H](C(=O)[O-])[O]4)[O][C@H]([C@H](O)CO)[C@@H]1[O]2.[Na+].[Na+].[Na+] [sodium stibogluconate] | – | – | – | – | – | inhibited by SSG in a dose-dependent manner | killed all cells
